One compound from patent publication US7491495B2, “Adsorption of nucleic acids to a solid phase” (Roche Diagnostics Operations, Inc., priority 2004, dated 2009) can be followed below.

The structures appear in SMILES notation. Like-named read-outs stand apart in the source and are kept apart here.

The target of this experiment is proteinase K (Parengyodontium album, UniProt P06873). Conditions: relative to 0 min control buffer without chaotropic agent (0.5 U/ml = 100%); for Activity of proteinase K at t = 0 min: 0 min value; for Activity of proteinase K at t = 15 min: 15 min value. The protocol:
10 μl of a 20 mg/ml stock solution of proteinase K (Roche Diagnostics GmbH, Mannheimm, catalogue no. 745723; 90 mg dissolved in 4.5 ml water) was mixed with a chaotropic buffer containing 50 mM Tris-HCl pH 6.0, 1% DTT, 20% TRITON X-100 and x M Guanidinum thiocyanate; x=0, 1, 2, 3, 4, 5, 6). Directly after mixing the proteinase K activity was measured in a first aliquot (10 μl) of the mixture using the assay described below (0 min activity value). 15 min after mixing the proteinase K activity was measured in a second aliquot (10 μl) of the mixture using the assay described below (15 min activity value).
10 μl of the proteinase K in chaotropic buffer (see above, (A)) were mixed with assay buffer, that is to say 980 μl 0.2 M Triethanolamin, 0.05% (weight by volume) PEG 6000, 0.1 M Calcium chloride, and 10 μl of a 200 mM substate solution. The substrate was Suc-Ala-Ala-Ala-p-Nitroanilid. The assay buffer was provided in a cuvette. Immediately after mixing the cuvette was placed in a Photometer. Measurements (absorption) were taken over 15 min at 25° C. The activity of proteinase K in the assay buffer was calculated from the kinetics as indicated by a change in absorption at 405 nm.
Table 1 lists the 0 min values of the activity of proteinase K in the presence of guanidinium thiocyanate at the different concentrations given in (A). Table 2 lists the 15 min values of the activity of proteinase K in the presence of guanidinium thiocyanate at the different concentrations given in (A) as well as the control value (no chaotropic agent present). The values are expressed in relation to the 0 min activity value of proteinase K in the control buffer without chaotropic agent (see (A)), corresponding to 0.5 U/ml; this value was set as 100%. The data of Table 1 and Table 2 are graphically represented in FIG. 1 and FIG. 2.

Sequence of proteinase K (P06873 106-384): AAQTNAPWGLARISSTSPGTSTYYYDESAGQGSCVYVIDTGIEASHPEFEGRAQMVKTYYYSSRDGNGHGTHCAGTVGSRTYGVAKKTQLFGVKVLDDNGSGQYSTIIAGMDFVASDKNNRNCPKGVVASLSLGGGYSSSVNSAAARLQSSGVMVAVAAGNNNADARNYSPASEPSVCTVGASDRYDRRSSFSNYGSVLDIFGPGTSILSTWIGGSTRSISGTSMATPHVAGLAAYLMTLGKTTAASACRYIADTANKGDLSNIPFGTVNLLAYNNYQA

For `N#CS.N=C(N)N` [guanidinium thiocyanate], the “Activity of proteinase K at t = 0 min” value (1 M guanidinium thiocyanate) worked out at 94%; the “Activity of proteinase K at t = 0 min” value (2 M guanidinium thiocyanate) stood at 100%; the “Activity of proteinase K at t = 0 min” value (3 M guanidinium thiocyanate) is recorded as 66%; the “Activity of proteinase K at t = 0 min” value (4 M guanidinium thiocyanate) was 1%; the “Activity of proteinase K at t = 0 min” value (5 M guanidinium thiocyanate) was found to be 0%; the “Activity of proteinase K at t = 0 min” value (6 M guanidinium thiocyanate) is recorded as 0%. The “Activity of proteinase K at t = 15 min” value (1 M guanidinium thiocyanate) came out at 95%; the “Activity of proteinase K at t = 15 min” value (2 M guanidinium thiocyanate) was 95%; the “Activity of proteinase K at t = 15 min” value (3 M guanidinium thiocyanate) was found to be 1%; the “Activity of proteinase K at t = 15 min” value (4 M guanidinium thiocyanate) was determined as 0%; the “Activity of proteinase K at t = 15 min” value (5 M guanidinium thiocyanate) is listed as 0%; the “Activity of proteinase K at t = 15 min” value (6 M guanidinium thiocyanate) turned out to be 0%.
